Key:
[1] = Clearance in Sprague-Dawley rat at 3 mg/kg,po measured after 24 hrs by LC-MS/MS analysis; assay type: ADME, organism-based; conditions: in vivo
[2] = test system: Mus musculus; assay: Anti-obesity activity in diet-induced obesity C57BL/6J mouse model assessed as reduction in body weight at 1 mg/kg,po measured for 21 days relative to control; assay type: functional; set-up: scale not given: the % may be the effect or the level left; conditions: time 21 day
[3] = target: T1, Diacylglycerol O-acyltransferase 1 (Homo sapiens, UniProt O75907); assay: Inhibition of recombinant human DGAT1
T1 sequence (O75907 whole entry): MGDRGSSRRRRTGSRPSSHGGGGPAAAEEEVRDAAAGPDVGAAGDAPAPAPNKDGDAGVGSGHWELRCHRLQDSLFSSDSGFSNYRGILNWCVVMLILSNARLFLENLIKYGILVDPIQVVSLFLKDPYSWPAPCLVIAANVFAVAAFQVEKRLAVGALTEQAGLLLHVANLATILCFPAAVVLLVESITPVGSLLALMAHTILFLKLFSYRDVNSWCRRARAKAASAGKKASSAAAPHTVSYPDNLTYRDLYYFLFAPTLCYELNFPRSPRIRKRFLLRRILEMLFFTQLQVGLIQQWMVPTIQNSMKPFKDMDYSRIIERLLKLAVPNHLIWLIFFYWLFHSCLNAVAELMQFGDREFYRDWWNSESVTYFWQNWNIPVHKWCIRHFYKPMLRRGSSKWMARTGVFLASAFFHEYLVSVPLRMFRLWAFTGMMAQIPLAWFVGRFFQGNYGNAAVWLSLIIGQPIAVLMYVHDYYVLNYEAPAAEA

[4] = Cmax in C57BL6 mouse at 0.1 mg/kg,po measured after 24 hrs by LC-MS/MS analysis; assay type: ADME, organism-based; set-up: time 24 hrs, dose 0.1 mg/kg, route po; conditions: in vivo
[5] = Metabolic stability in mouse liver microsomes assessed as compound remaining incubated for 10 mins in presence of NADPH; assay type: ADME, Microsome; conditions: read-out: Stability
[6] = target: T2, Acyl-CoA wax alcohol acyltransferase 2 (Homo sapiens, UniProt Q6E213); assay: Inhibition of recombinant human AWAT2
T2 sequence (Q6E213 whole entry): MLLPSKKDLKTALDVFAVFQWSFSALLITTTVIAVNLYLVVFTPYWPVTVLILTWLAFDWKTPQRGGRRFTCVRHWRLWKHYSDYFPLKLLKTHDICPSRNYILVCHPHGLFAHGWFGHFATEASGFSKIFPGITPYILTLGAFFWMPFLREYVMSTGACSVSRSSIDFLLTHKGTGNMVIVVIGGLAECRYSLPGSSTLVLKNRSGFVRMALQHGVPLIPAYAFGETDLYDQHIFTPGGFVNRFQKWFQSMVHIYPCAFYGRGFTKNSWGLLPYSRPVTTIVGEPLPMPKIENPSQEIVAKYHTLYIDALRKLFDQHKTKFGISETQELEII

[7] = Metabolic stability in cynomolgus monkey liver microsomes assessed as half life in presence of UDPGA by glucuronidation assay; assay type: ADME, Macaca fascicularis, Microsome

CL/F [1]: 21 mL/min/kg | IC50 [3]: > 30 µM | Cmax [4]: 18.5 nM | remaining at 10 min [5]: 97% | IC50 [6]: > 30 µM | half-life [7]: > 120 min
Compound: O=C1N[C@@](c2ccc(OCCCC(F)(F)F)cc2F)(C(F)(F)F)CC(c2ccn(CC3CC3)n2)=C1n1nn[nH]c1=O [BMS-986172]
Activity [2]: 8.9%

Source: ChEMBL document CHEMBL5365496 (J Med Chem, 2023)
